Experiments:
[1] = target: CDK2/Cyclin E1 (Homo sapiens, UniProt P24941); test: CDK2/Cyclin E1 Biochemical Assay (TR-FRET), 0.060 mM ATP; details: 0.15 μM Rb (Ser780)-biotin substrate, pH7.0, 60 min preincubation, 120 min reaction, room temperature
In short: (§1)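 IC50 was from a four-parameter logistic fit of the 665/620 nm TR-FRET ratio (Eu anti-pRb Ser780 mAb, streptavidin-XL665). Compound (0-10 μM) was preincubated 60 min with enzyme, then reacted 120 min at room temperature with 0.15 μM biotinylated Rb (Ser780) peptide. ATP was 0.015 mM for CDK1/Cyclin B1 and 0.060 mM for CDK2/Cyclin E1; buffer was HEPES pH7.0.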

[2] = target: CDK1/Cyclin B1 (Homo sapiens, UniProt P06493); test: CDK1/Cyclin B1 Biochemical Assay (TR-FRET), 0.015 mM ATP; details: 0.15 μM Rb (Ser780)-biotin substrate, pH7.0, 60 min preincubation, 120 min reaction, room temperature
In short: as §1

Chain of CDK1/Cyclin B1 (P06493 whole entry): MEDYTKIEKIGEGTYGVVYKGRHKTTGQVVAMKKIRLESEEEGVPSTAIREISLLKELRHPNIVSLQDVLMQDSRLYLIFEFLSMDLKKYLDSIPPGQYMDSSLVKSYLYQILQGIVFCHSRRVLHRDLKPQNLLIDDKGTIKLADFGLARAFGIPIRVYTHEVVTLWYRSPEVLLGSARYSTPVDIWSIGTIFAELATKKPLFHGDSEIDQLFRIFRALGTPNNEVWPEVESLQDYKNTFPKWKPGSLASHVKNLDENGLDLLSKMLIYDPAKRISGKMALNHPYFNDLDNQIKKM
Chain of CDK1/Cyclin B1 (P14635 whole entry partner): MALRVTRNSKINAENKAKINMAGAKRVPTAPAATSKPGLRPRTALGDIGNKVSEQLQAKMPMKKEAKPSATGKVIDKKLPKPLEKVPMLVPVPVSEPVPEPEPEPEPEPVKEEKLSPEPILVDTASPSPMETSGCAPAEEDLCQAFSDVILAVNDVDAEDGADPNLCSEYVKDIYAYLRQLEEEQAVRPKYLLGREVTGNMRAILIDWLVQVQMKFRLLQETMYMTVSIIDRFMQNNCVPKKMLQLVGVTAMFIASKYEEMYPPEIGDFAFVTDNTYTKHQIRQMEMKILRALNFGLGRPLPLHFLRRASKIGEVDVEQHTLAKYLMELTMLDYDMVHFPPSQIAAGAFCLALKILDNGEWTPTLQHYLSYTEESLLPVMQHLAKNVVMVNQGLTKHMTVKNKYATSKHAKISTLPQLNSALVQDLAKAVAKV

Structure (SMILES) | IC50 [1] [nM] | IC50 [2] [nM]
CC[C@H](C)NC(=O)O[C@H]1CC[C@@H](c2cc(Nc3ccc4c(c3F)CS(=O)(=O)N4C3COC3)n[nH]2)C1 (single isomer, unassigned) [Example 261b] | 0.7 | 23
CC(C)CN1Cc2c(ccc(Nc3cc([C@@H]4CC[C@H](OC(=O)NC(C)C)C4)[nH]n3)c2F)S1(=O)=O (relative stereo) [Example 101, cis-3-(3-((4-fluoro-2-isobutyl-1,1-dioxido-2,3-dihydrobenzo[d]isothiazol-5-yl)amino)-1H-pyrazol-5-yl)cyclopentyl isopropylcarbamate] | 10 | 1020
CC(C)NC(=O)O[C@H]1CC[C@@H](c2cc(Nc3ccc4c(c3F)CN(CCO)S4(=O)=O)n[nH]2)C1 (single isomer, unassigned) [Example 125b, cis-3-(3-((4-fluoro-2-(2-hydroxyethyl)-1,1-dioxido-2,3-dihydrobenzo[d]isothiazol-5-yl)amino)-1H-pyrazol-5-yl)cyclopentyl isopropylcarbamate] | 4.9 | 341
CC(C)(C)NC(=O)O[C@@H]1CC[C@H](c2cc(Nc3ccc4c(c3)CS(=O)(=O)N4)n[nH]2)C1 [Example 403a] | 1 | 10
CC(NC(=O)O[C@H]1CC[C@@H](c2cc(Nc3ccc4c(c3)CS(=O)(=O)N4C)n[nH]2)C1)C1COC1 (relative stereo) [Example 235, cis-3-(3-((1-methyl-2,2-dioxido-1,3-dihydrobenzo[c]isothiazol-5-yl)amino)-1H-pyrazol-5-yl)cyclopentyl(1-(oxetan-3-yl)ethyl)carbamate] | 12 | 232
CC(CC(F)(F)F)NC(=O)O[C@H]1CC[C@@H](c2cc(Nc3cc4c(cc3F)S(=O)(=O)NC4)n[nH]2)C1 (relative stereo) [Example 412, cis-3-(3-((6-fluoro-1,1-dioxido-2,3-dihydrobenzo[d]isothiazol-5-yl)amino)-1H-pyrazol-5-yl)cyclopentyl(4,4,4-trifluorobutan-2-yl)carbamate] | 1.8 | 147
CC(C)NC(=O)O[C@H]1CC[C@@H](c2cc(Nc3ccc4c(c3F)CN(C3CCCN(C)C3)S4(=O)=O)n[nH]2)C1 (relative stereo) [Example 61, cis-3-(3-((4-fluoro-2-(1-methylpiperidin-3-yl)-1,1-dioxido-2,3-dihydrobenzo[d]isothiazol-5-yl)amino)-1H-pyrazol-5-yl)cyclopentyl isopropylcarbamate] | 10 | 836
O=C(NC1CCC1)O[C@H]1CC[C@@H](c2cc(Nc3ccc4c(c3F)CNS4(=O)=O)n[nH]2)C1 (relative stereo) [Example 157, cis-3-(3-((4-fluoro-1,1-dioxido-2,3-dihydrobenzo[d]isothiazol-5-yl)amino)-1H-pyrazol-5-yl)cyclopentyl cyclobutylcarbamate] | 15 | 240
CC(C)NC(=O)O[C@H]1CC[C@@H](c2cc(Nc3ccc4c(c3)CS(=O)(=O)N4CCC3CCOCC3)n[nH]2)C1 (relative stereo) [Example 217, cis-3-(3-((2,2-dioxido-1-(2-(tetrahydro-2H-pyran-4-yl)ethyl)-1,3-dihydrobenzo[c]isothiazol-5-yl)amino)-1H-pyrazol-5-yl)cyclopentyl isopropylcarbamate] | 8.8 | 126
CC(C)NC(=O)O[C@H]1CC[C@@H](c2cc(Nc3ccc4c(c3)C3(CCC3)S(=O)(=O)N4)n[nH]2)C1 (relative stereo) [Example 199, cis-3-(3-((2,2-dioxido-1H-spiro[benzo[c]isothiazole-3,1′-cyclobutan]-5-yl)amino)-1H-pyrazol-5-yl)cyclopentyl isopropylcarbamate] | 5.5 | 84
CN1c2ccc(Nc3cc([C@@H]4CC[C@H](OC(=O)NC5CCC56CC6)C4)[nH]n3)cc2CS1(=O)=O (relative stereo) [Example 196, cis-3-(3-((1-methyl-2,2-dioxido-1,3-dihydrobenzo[c]isothiazol-5-yl)amino)-1H-pyrazol-5-yl)cyclopentyl spiro[2.3]hexan-4-ylcarbamate] | 4.3 | 47
CC(C)NC(=O)O[C@H]1CC[C@@H](c2cc(Nc3ccc4c(c3F)C(=O)NS4(=O)=O)n[nH]2)C1 (relative stereo) [Example 59, cis-3-(3-((4-fluoro-1,1-dioxido-3-oxo-2,3-dihydrobenzo[d]isothiazol-5-yl)amino)-1H-pyrazol-5-yl)cyclopentyl isopropylcarbamate] | 5.8 | 296
CC1(NC(=O)O[C@H]2CC[C@@H](c3cc(Nc4ccc5c(c4F)CNS5(=O)=O)n[nH]3)C2)CC1 (single isomer, unassigned) [Example 140b, cis-3-(3-((4-fluoro-1,1-dioxido-2,3-dihydrobenzo[d]isothiazol-5-yl)amino)-1H-pyrazol-5-yl)cyclopentyl(1-methylcyclopropyl)carbamate] | 1.4 | 38
CC1(NC(=O)O[C@H]2CC[C@@H](c3cc(Nc4ccc5c(c4F)CS(=O)(=O)N5C4CC4)n[nH]3)C2)COC1 (relative stereo) [Example 362, cis-3-(3-((1-cyclopropyl-4-fluoro-2,2-dioxido-1,3-dihydrobenzo[c]isothiazol-5-yl)amino)-1H-pyrazol-5-yl)cyclopentyl(3-methyloxetan-3-yl)carbamate] | 3.8 | 133
CN1c2ccc(Nc3cc([C@@H]4CC[C@H](OC(=O)NC56CC(C5)C6)C4)[nH]n3)cc2CS1(=O)=O (relative stereo) [Example 231, cis-3-(3-((1-methyl-2,2-dioxido-1,3-dihydrobenzo[c]isothiazol-5-yl)amino)-1H-pyrazol-5-yl)cyclopentyl bicyclo[1.1.1]pentan-1-ylcarbamate] | 1.5 | 13
CC(C)NC(=O)O[C@H]1CC[C@@H](c2cc(Nc3ccc4c(c3F)CS(=O)(=O)N4)n[nH]2)C1 (single isomer, unassigned) [Example 251b] | 1 | 31
CC(C)NC(=O)O[C@H]1CC[C@@H](c2cc(Nc3ccc4c(c3)CS(=O)(=O)N4C(C)C3CCOC3)n[nH]2)C1 (relative stereo) [Example 218, cis-3-(3-((2,2-dioxido-1-(1-(tetrahydrofuran-3-yl)ethyl)-1,3-dihydrobenzo[c]isothiazol-5-yl)amino)-1H-pyrazol-5-yl)cyclopentyl isopropylcarbamate] | 112 | 999
CC[C@H](C)NC(=O)O[C@H]1CC[C@@H](c2cc(Nc3ccc4c(c3F)CS(=O)(=O)N4CCO)n[nH]2)C1 (relative stereo) [Example 273, cis-3-(3-((4-fluoro-1-(2-hydroxyethyl)-2,2-dioxido-1,3-dihydrobenzo[c]isothiazol-5-yl)amino)-1H-pyrazol-5-yl)cyclopentyl((S)-sec-butyl)carbamate] | 2.5 | 43
CCCNC(=O)O[C@H]1CC[C@@H](c2cc(Nc3ccc4c(c3F)CNS4(=O)=O)n[nH]2)C1 (single isomer, unassigned) [Example 138b] | 1.5 | 60
CC(C)NC(=O)O[C@H]1CC[C@@H](c2cc(Nc3ccc4c(c3F)CN(C3CCOC3)S4(=O)=O)n[nH]2)C1 (relative stereo) [Example 69, cis-3-(3-((4-fluoro-1,1-dioxido-2-(tetrahydrofuran-3-yl)-2,3-dihydrobenzo[d]isothiazol-5-yl)amino)-1H-pyrazol-5-yl)cyclopentyl isopropylcarbamate] | 9.5 | 647
CC1(NC(=O)O[C@H]2CC[C@@H](c3cc(Nc4cc5c(cc4F)N(CCO)S(=O)(=O)C5)n[nH]3)C2)CC1 (relative stereo) [Example 299, cis-3-(3-((6-fluoro-1-(2-hydroxyethyl)-2,2-dioxido-1,3-dihydrobenzo[c]isothiazol-5-yl)amino)-1H-pyrazol-5-yl)cyclopentyl(1-methylcyclopropyl)carbamate] | 9 | 239
COCC(C)NC(=O)O[C@H]1CC[C@@H](c2cc(Nc3ccc4c(c3F)CS(=O)(=O)N4C3CC3)n[nH]2)C1 (relative stereo) [Example 367, cis-3-(3-((1-cyclopropyl-4-fluoro-2,2-dioxido-1,3-dihydrobenzo[c]isothiazol-5-yl)amino)-1H-pyrazol-5-yl)cyclopentyl(1-methoxypropan-2-yl)carbamate] | 1.7 | 117
CC(C)NC(=O)O[C@H]1CC[C@@H](c2cc(Nc3ccc4c(c3F)CS(=O)(=O)N4C3CC3)n[nH]2)C1 (single isomer, unassigned) [Example 275a, cis-3-(3-((1-cyclopropyl-4-fluoro-2,2-dioxido-1,3-dihydrobenzo[c]isothiazol-5-yl)amino)-1H-pyrazol-5-yl)cyclopentyl isopropylcarbamate] | 8.4 | 398
Cc1cc2c(cc1Nc1cc([C@@H]3CC[C@H](OC(=O)NC(C)C)C3)[nH]n1)CS(=O)(=O)N2C (relative stereo) [Example 244, cis-3-(3-((1,6-dimethyl-2,2-dioxido-1,3-dihydrobenzo[c]isothiazol-5-yl)amino)-1H-pyrazol-5-yl)cyclopentyl isopropylcarbamate] | 1060 | 7260
CC(C)NC(=O)O[C@H]1CC[C@@H](c2cc(Nc3ccc4c(c3F)CN(CCCO)S4(=O)=O)n[nH]2)C1 (relative stereo) [Example 113, cis-3-(3-((4-fluoro-2-(3-hydroxypropyl)-1,1-dioxido-2,3-dihydrobenzo[d]isothiazol-5-yl)amino)-1H-pyrazol-5-yl)cyclopentyl isopropylcarbamate] | 3.6 | 288

Source: patent US20260297080A1, “BICYCLIC COMPOUNDS AS CDK INHIBITORS” (BeOne Medicines I GmbH, priority 2022, published 2026)
